This is an account of results in patent US9884813B1, “Pharmaceutically acceptable salts of B-guanidinopropionic acid with improved properties and uses thereof” (Rgenix, Inc., priority 2017, dated 2018).

Common to all, as to type: physicochemical
Series [1] is described as follows: Solid form stability under stressed conditions (wet, dry, high humidity) by XRPD. To be noted: for Dry_XRPD pattern: dry (45° C. under vacuum); for Humid_XRPD pattern: high humidity (RH >95%); for Wet_XRPD pattern: wet. How it is done:
The solid form stability of each salt was studied by XRPD under stressed conditions: wet, dry (45° C. under vacuum) and high humidity (RH >95%).

Series [2] can be described thus: Dynamic vapor sorption (DVS) with XRPD of the post-DVS sample. To be noted: for solid form by XRPD after the DVS experiment: post DVS sample. How it is done:
Samples were analyzed using an Aquadyne DVS-2 gravimetric water sorption analyzer. The relative humidity was adjusted between 2-95% and the weight of the sample was continuously monitored and recorded.
[…]: β-GPA maleate (1:1) Form II, β-GPA fumarate (1:1), β-GPA maleate (2:1), β-GPA succinate (2:1) and β-GPA oxalate (1:1) were analyzed by DVS experiment followed by XRPD analysis of the sample at the end of the experiment.
Sample 2162-64-1 was analyzed by DVS in triplicate and the post DVS samples were characterized by XRPD to identify the form at the end of the experiment.

The nature of series [3]: Solid form stability of salts in different solvents (slurry, XRPD). To be noted: 48 hours, room temperature. How it is done:
Three salts were studied for solid form stability in water (disproportionation test), methanol, acetonitrile, and acetone:water (9:1) for 48 hours at room temperature.

Series [4] is described as follows: Solid form stability at 40° C. and 75% humidity. The following applies: 40° C. and 75% RH for seven days. How it is done: Solid form stability studies of β-GPA fumarate, succinate, and oxalate were carried out at 40° C. and 75% RH for seven days. Around 30 mg of the salts were placed in 4 mL vials which were placed in a saturated solution of sodium chloride (2 mL) with lids closed at 40° C. […]

The nature of the next series: Bulk and tapped density. How it is done: The bulk density of β-GPA oxalate (Pattern 18 B), succinate (Pattern 15A), and fumarate (Pattern 7A) were determined by pouring in a known amount of salt (g) into a measuring cylinder. The volume (Vi) occupied by the salt was recorded and the bulk density (ρB) was determined using equation 1. ρB=g/Vi (1)
The tapped densities of the salts were determined using a Tap density analyzer. A known amount of salt was poured (g) into a measuring cylinder and the initial volume was recorded and tapped using a Tap density analyzer. The final volume (Vf) after tapping was recorded and the tapped density (ρT) was calculated by using equation 2. ρT=g/Vf (2)

A short description of series [5]: Carr's index and Hausner ratio (predicted flowability). An excerpt: The flow properties of β-GPA are sub-optimal. The bulk density is 0.389 g/cc and the tapped density is 0.627 g/cc. These measurements can be used to calculate the Carr's index and Hausner ratio for a substance. The Carr's index and Hausner ratio are indicators of flowability of a powder. As known in the art, e.g., as described in Carr R. L. Chem. Eng. 1965, 72, 163-168, the relationship to flowability of a powder to the Carr's index and Hausner ratio is based on the scale shown in Table 6 below.
Carr's index or Carr's compressibility index (C) is an indication of the compressibility of a powder. It can be calculated using the equation below: Carr's index (C)=100(Vi−Vf)/Vi (3) A Carr's index greater than 25 is considered to be an indication of poor flowability while a value below 15 is an indication of good flowability.
The Hausner ratio is a number that is correlated to the flowability of a powder or granular material. It is calculated by using the equation below: Hausner ratio=Vi/Vf (4)

Series [6] can be described thus: Flowability measurement using Hanson Flodex unit. The following applies: for flow character from the experimental data: summary of density and Flodex measurements. An excerpt: Method: A cylindrical vessel is secured to the stand and above that a funnel is also secured such that the bottom of the funnel is close to the vessel. A powder load of ≈50-60 g is then poured through the funnel into the middle of the cylinder. The lever device is pulled to open the hole in the disk quickly and without vibration. If a powder slowly flows through the small-diameter holes, leaving a cavity shaped like an upside-down, truncated cone, the test is considered positive. If a powder flocculates in bulk and falls abruptly, forming a cylindrical cavity, the test is considered negative. […] If the experiment is negative, the powder is tested again with a disk having a larger hole.

Series [7] is described as follows: Carr's index and Hausner ratio (predicted flowability). The following applies: Table 18, scale of Table 17.
Setting [8] is: water (disproportionation test).
[9] abbreviates: calculated from bulk and tapped volumes.

“Also recorded” adds a separate entry of the source. Where two headings read alike, the source gives them in different places.

On to `Cl.NC(N)=NCCC(=O)O` [β-GPA hydrochloride], for which, in series [1], the Dry_XRPD pattern result was “Pattern 1A”, the “stability in dry conditions” value is reported as “stable”, the Humid_XRPD pattern entry is “Deliquesce” and the “stability under high humidity conditions” value is “deliquesced”. In addition, in series [1], the Wet_XRPD pattern result is reported as “Pattern 1A”.
With `CS(=O)(=O)O.N=C(N)NCCC(=O)O` [β-GPA methanesulfonate], in series [1], the Dry_XRPD pattern entry was “Pattern 19A”, the “stability in dry conditions” value was “stable”, the Humid_XRPD pattern entry was “Deliquesce” and the “stability under high humidity conditions” value is on record as “deliquesced”. Also, the Wet_XRPD pattern entry in series [1] was “Pattern 19A”.
In the case of `N=C(N)NCCC(=O)O.N=C(N)NCCC(=O)O.O=C(O)/C=C\C(=O)O` [β-GPA maleate (2:1)], in series [1], the Dry_XRPD pattern result is reported as “Pattern 6C”, the Humid_XRPD pattern entry is on record as “Pattern 6B” and the Wet_XRPD pattern result was “Pattern 6B”.
For `N=C(N)NCCC(=O)O.O=C(O)C(=O)O` [β-GPA oxalate (1:1)], the “solid form by XRPD after the DVS experiment” value (“solid form by XRPD” below) was “retained their XRPD” in series [2], “no form change” in series [2] (listed as 1:1 oxalate salt) and “no form change” in series [2] (listed as 1:1 β-GPA oxalate). Also, in series [1], the Dry_XRPD pattern result was “Pattern 18A”. Moreover, the “stability in dry conditions” value in series [1] is “stable”. Besides, the Humid_XRPD pattern entry in series [1] is reported as “Pattern 18A”. The “stability under high humidity conditions” value in series [1] is “stable”. Besides, the Wet_XRPD pattern result in series [1] is on record as “Pattern 18A”. In addition, the “XRPD pattern after slurry” value in series [3] (acetone:water (9:1)) is on record as “retain their XRPD pattern”; in series [3] (acetonitrile), “retain their XRPD pattern”; in series [3] (methanol) it was “retain their XRPD pattern”; in series [3] (setting [8]), “retained their XRPD patterns”; in series [3] (water (disproportionation test), listed as 1:1 β-GPA oxalate), “retained their XRPD pattern”. For the same compound, the entries for the “solid form stability (XRPD)” value in series [4] and in series [4] (listed as 1:1 oxalate salt) were “retained their original XRPD pattern; also recorded: stable” and “stable”, respectively. In “Bulk and tapped density”, this compound had a Bulk density of 0.505 g/cc. In “Bulk and tapped density”, the Tapped density was 0.623 g/cc. For the same compound, the “Carr's index” value in series [5] (setting [9]) is listed as 18.7. The Hausner ratio in series [5] (setting [9]) is given as 1.23. In addition, the Flow character entry is recorded as “Fair (16-20)” in series [5] (predicted, scale of Table 6 (Carr's index)) and “Fair (16-20)” in series [7]. In addition, the “Did solid pass?” value in series [6] (Disc pore size 12 mm) is listed as “No”; in series [6] (Disc pore size 18 mm), “No”; in series [6] (Disc pore size 24 mm), “No”; in series [6] (Disc pore size 26 mm) it was “Yes”; in series [6] (Disc pore size 28 mm) it was “Yes”; in series [6] (Disc pore size 30 mm), “Yes”. Besides, in series [6], the “flow character from the experimental data” value is reported as “fair”.
As for `N=C(N)NCCC(=O)O.O=C(O)C[C@H](O)C(=O)O` [β-GPA malate (1:1)], in series [1], the Dry_XRPD pattern result is “Pattern 12A”, the “stability in dry conditions” value is listed as “stable”, the Humid_XRPD pattern entry is “Deliquesce” and the “stability under high humidity conditions” value is given as “deliquesced”. For the same compound, in series [1], the Wet_XRPD pattern result is reported as “Pattern 12A”.
On to `N=C(N)NCCC(=O)O.O=C(O)/C=C/C(=O)O` [β-GPA fumarate], for which the “solid form by XRPD” value in series [2] is listed as “retained their XRPD; also recorded: presence of two peaks from the β-GPA”. The “XRPD pattern after slurry” value in series [3] (setting [8]) is reported as “retained their XRPD patterns”. For the same compound, the “solid form stability (XRPD)” value in series [4] is on record as “retained their original XRPD pattern; also recorded: stable”. Moreover, the “flow character from the experimental data” value in series [6] is on record as “excellent”.
Take `N=C(N)NCCC(=O)O.O=P(O)(O)O` [β-GPA phosphate]: in series [1], the Dry_XRPD pattern entry was “Pattern 4A”, the “stability in dry conditions” value is given as “stable”, the Humid_XRPD pattern result is listed as “Deliquesce” and the “stability under high humidity conditions” value was “deliquesced”. In series [1], the Wet_XRPD pattern result is “Pattern 4A”.
As to `CCS(=O)(=O)O.N=C(N)NCCC(=O)O` [ethanesulfonic acid salt], in series [1], the “stability in dry conditions” value is reported as “stable” and the “stability under high humidity conditions” value is recorded as “deliquesced”.
For the compound `N=C(N)NCCC(=O)O.O=C(O)/C=C\C(=O)O` [β-GPA maleate (1:1) Form I], in series [1], the Dry_XRPD pattern result is “Pattern 6A”, the “stability in dry conditions” value is on record as “stable”, the Humid_XRPD pattern entry is reported as “Pattern 6A” and the “stability under high humidity conditions” value was “stable”. Further, the Wet_XRPD pattern entry in series [1] is reported as “Pattern 6A”.
For `N=C(N)NCCC(=O)O.O=C(O)/C=C/C(=O)O` [β-GPA fumarate (1:1)], in series [2] (listed as 1:1 β-GPA fumarate), the “moisture uptake during the DVS experiment” value was under 1% and the “solid form by XRPD” value is reported as “presence of β-GPA peaks along with Pattern 7A”. Moreover, the “solid form by XRPD” value in series [2] (listed as 1:1 fumarate salt) is listed as “no form change”. For the same compound, in series [1], the Dry_XRPD pattern entry is “Pattern 7A”, the “stability in dry conditions” value was “stable”, the Humid_XRPD pattern result was “Pattern 7A” and the “stability under high humidity conditions” value is given as “stable”. The Wet_XRPD pattern result in series [1] is listed as “Pattern 7A”. Besides, in series [3] (acetone:water (9:1)), the “XRPD pattern after slurry” value is on record as “retain their XRPD pattern”. In series [3] (acetonitrile), the “XRPD pattern after slurry” value was “retain their XRPD pattern”. For the same compound, the “XRPD pattern after slurry” value in series [3] (methanol) was “retain their XRPD pattern”. The “XRPD pattern after slurry” value in series [3] (water (disproportionation test), listed as 1:1 β-GPA fumarate) is “retained their XRPD pattern”. In series [4] (listed as 1:1 fumarate salt), the “solid form stability (XRPD)” value was “stable”.
With `N=C(N)NCCC(=O)O.O=C(O)/C=C\C(=O)O` [β-GPA maleate (1:1) Form II], in series [2], the “moisture uptake during the DVS experiment” value is reported as about 25% and the “solid form by XRPD” value is “no form change”. Besides, the moisture uptake result in series [2] (at around 95% RH) is “around 25%”. Further, in series [1], the Dry_XRPD pattern entry is “Pattern 6D”, the Humid_XRPD pattern entry is listed as “Pattern 6D” and the Wet_XRPD pattern result is given as “Pattern 6D”. Besides, the “XRPD pattern after slurry” value in series [3] (acetone:water (9:1)) is recorded as “matched with the original pattern of the salt (Pattern 6D) along with some additional peaks”. Further, the “XRPD pattern after slurry” value in series [3] (acetonitrile) is given as “retain its XRPD pattern”. For the same compound, in series [3] (methanol), the “XRPD pattern after slurry” value is “retain its XRPD pattern”. The “XRPD pattern after slurry” value in series [3] (setting [8]) is listed as “retained their XRPD patterns”.
